Data taken from PubChem BioAssay (NCI).
Values joined by “and” are separate entries in the source; they are usually repeats but may differ in a detail not shown here. Equal values may be shown once.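 Exposure lasted 48 hours, with cells grown in 96-well plates and compounds tested at five concentrations. GI50 marks 50% less growth. Definition used: TGI = concentration required for complete inhibition of growth.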

Experiments:
Assay in all cases: NCI tumour cell line growth inhibition, 48 h
HL-60(TB) leukemia = test system: HL-60(TB) leukemia
KM12 colon = test system: KM12 colon
MOLT-4 leukemia = test system: MOLT-4 leukemia
OVCAR-4 ovarian = test system: OVCAR-4 ovarian
OVCAR-8 ovarian = test system: OVCAR-8 ovarian
RPMI-8226 leukemia = test system: RPMI-8226 leukemia
SF-268 CNS = test system: SF-268 CNS
SK-MEL-5 melanoma = test system: SK-MEL-5 melanoma
T-47D breast = test system: T-47D breast
U251 CNS = test system: U251 CNS

Structure (SMILES): CCCOc1ccc(-c2nc(-c3ccc(N=Cc4ccc(N(CCOS(C)(=O)=O)CCOS(C)(=O)=O)cc4C)cc3)cs2)cc1
- TGI (HL-60(TB) leukemia): 54 µM
- TGI (KM12 colon): 42 µM
- TGI (MOLT-4 leukemia): 66.6 µM
- TGI (OVCAR-4 ovarian): 81.9 µM
- TGI (OVCAR-8 ovarian): > 100 µM
- TGI (RPMI-8226 leukemia): > 100 µM
- TGI (SF-268 CNS): 77.8 µM
- TGI (SK-MEL-5 melanoma): > 71.3 µM
- TGI (T-47D breast): > 92.1 µM
- TGI (U251 CNS): 52.4 µM

Structure (SMILES): CN[C@@H](C)C(=O)N[C@H]1CN(C(=O)CC(C)C)CC[C@H]2CC[C@@H](C(=O)NC(c3ccccc3)c3ccccc3)N2C1=O
- GI50 (HL-60(TB) leukemia): 29.1 µM
- TGI (HL-60(TB) leukemia): > 100 µM
- GI50 (KM12 colon): > 100 µM
- TGI (KM12 colon): > 100 µM
- GI50 (MOLT-4 leukemia): > 86.7 µM
- TGI (MOLT-4 leukemia): > 100 µM
- GI50 (OVCAR-4 ovarian): 0.664 µM
- TGI (OVCAR-4 ovarian): 8.42 µM
- GI50 (OVCAR-8 ovarian): 61.6 µM
- TGI (OVCAR-8 ovarian): > 100 µM
- GI50 (RPMI-8226 leukemia): > 74.9 µM
- TGI (RPMI-8226 leukemia): > 100 µM
- GI50 (SF-268 CNS): > 100 µM
- TGI (SF-268 CNS): > 100 µM
- GI50 (SK-MEL-5 melanoma): 41.9 µM
- TGI (SK-MEL-5 melanoma): > 100 µM
- GI50 (T-47D breast): > 100 µM
- TGI (T-47D breast): > 100 µM
- GI50 (U251 CNS): > 100 µM
- TGI (U251 CNS): > 100 µM

Structure (SMILES): Cc1nc2ccccn2c1NC(=O)NNC(=S)Nc1ccc(Br)cc1
- GI50 (HL-60(TB) leukemia): 24.4 µM
- TGI (HL-60(TB) leukemia): > 100 µM
- GI50 (KM12 colon): 35.4 µM
- TGI (KM12 colon): > 100 µM
- GI50 (MOLT-4 leukemia): 36.7 µM
- TGI (MOLT-4 leukemia): > 100 µM
- GI50 (OVCAR-4 ovarian): 66.2 µM
- TGI (OVCAR-4 ovarian): > 100 µM
- GI50 (OVCAR-8 ovarian): 63.8 µM
- TGI (OVCAR-8 ovarian): > 100 µM
- GI50 (RPMI-8226 leukemia): 41.6 µM
- TGI (RPMI-8226 leukemia): > 100 µM
- GI50 (SF-268 CNS): 67.9 µM
- TGI (SF-268 CNS): > 100 µM
- GI50 (SK-MEL-5 melanoma): 47.7 µM
- TGI (SK-MEL-5 melanoma): > 100 µM
- GI50 (T-47D breast): 48.2 µM
- TGI (T-47D breast): > 100 µM
- GI50 (U251 CNS): 32.1 µM
- TGI (U251 CNS): > 100 µM

Structure (SMILES): O=C(CCCCCCCn1cc(-c2cccnc2)nn1)Nc1ccccc1-c1ccccc1
- GI50 (HL-60(TB) leukemia): 4.74 µM
- TGI (HL-60(TB) leukemia): 29.1 µM
- GI50 (KM12 colon): 0.607 µM
- TGI (KM12 colon): 24.2 µM
- GI50 (MOLT-4 leukemia): 2.31 µM
- TGI (MOLT-4 leukemia): 23.4 µM
- GI50 (OVCAR-4 ovarian): 10.9 µM
- TGI (OVCAR-4 ovarian): > 100 µM
- GI50 (OVCAR-8 ovarian): 0.0437 µM
- TGI (OVCAR-8 ovarian): 27.9 µM
- GI50 (RPMI-8226 leukemia): 0.401 µM
- TGI (RPMI-8226 leukemia): > 77.9 µM
- GI50 (SF-268 CNS): 20.4 µM
- TGI (SF-268 CNS): > 100 µM
- GI50 (SK-MEL-5 melanoma): 2.25 µM
- TGI (SK-MEL-5 melanoma): 15.1 µM
- GI50 (T-47D breast): 1.44 µM
- TGI (T-47D breast): 28 µM
- GI50 (U251 CNS): 0.22 µM
- TGI (U251 CNS): > 100 µM

Structure (SMILES): C[C@H]1CC[C@H]([C@@H](C)[C@H]2[C@@H](O)C[C@H]3[C@@H]4CC[C@H]5C[C@@H](O)CC[C@]5(C)[C@H]4CC[C@]23C)NC1
- TGI (HL-60(TB) leukemia): 20.2 µM
- TGI (KM12 colon): 30.2 µM
- TGI (MOLT-4 leukemia): 27.4 µM
- TGI (OVCAR-4 ovarian): 34.1 µM
- TGI (OVCAR-8 ovarian): 32.2 µM
- TGI (RPMI-8226 leukemia): 30.7 µM
- TGI (SF-268 CNS): 67.1 µM
- TGI (SK-MEL-5 melanoma): 44 µM
- TGI (T-47D breast): 30.8 µM
- TGI (U251 CNS): 31.9 µM

Structure (SMILES): O=C(c1ccc(OCCN2CCCCC2)cc1)c1c(-c2ccc(O)cc2)sc2cc(O)ccc12
- GI50 (HL-60(TB) leukemia): 2.02 µM
- TGI (HL-60(TB) leukemia): 12.7 µM
- GI50 (KM12 colon): 4.49 µM and 9.32 µM
- TGI (KM12 colon): 15.3 µM and 34.3 µM
- GI50 (MOLT-4 leukemia): 2.8 µM and 4.86 µM
- TGI (MOLT-4 leukemia): 10.8 µM and 23.2 µM
- GI50 (OVCAR-4 ovarian): 7.8 µM and 12.1 µM
- TGI (OVCAR-4 ovarian): 20.5 µM and 36.8 µM
- GI50 (OVCAR-8 ovarian): 13.4 µM and 18.2 µM
- TGI (OVCAR-8 ovarian): 31.5 µM and 51.3 µM
- GI50 (RPMI-8226 leukemia): 5.54 µM and 2.41 µM
- TGI (RPMI-8226 leukemia): 77 µM and > 23.1 µM
- GI50 (SF-268 CNS): 6.67 µM and 12.8 µM
- TGI (SF-268 CNS): 20.1 µM and 35.5 µM
- GI50 (SK-MEL-5 melanoma): 9.51 µM and 5.32 µM
- TGI (SK-MEL-5 melanoma): 21.4 µM and 16.9 µM
- GI50 (T-47D breast): 2.77 µM and 5.89 µM
- TGI (T-47D breast): 20 µM and > 50.2 µM
- GI50 (U251 CNS): 5.53 µM and 7.84 µM
- TGI (U251 CNS): 19.6 µM and 21.1 µM

Structure (SMILES): COc1ccccc1-c1cc(/C=C2\C(=O)Nc3ncc(Br)cc32)cc(Br)c1O
- GI50 (HL-60(TB) leukemia): 7.47 µM
- TGI (HL-60(TB) leukemia): 23.7 µM
- GI50 (KM12 colon): 4.43 µM
- TGI (KM12 colon): > 25 µM
- GI50 (MOLT-4 leukemia): 9.31 µM
- TGI (MOLT-4 leukemia): > 25 µM
- GI50 (OVCAR-4 ovarian): 8.96 µM
- TGI (OVCAR-4 ovarian): > 25 µM
- GI50 (OVCAR-8 ovarian): > 19.1 µM
- TGI (OVCAR-8 ovarian): > 25 µM
- GI50 (RPMI-8226 leukemia): 9.59 µM
- TGI (RPMI-8226 leukemia): > 25 µM
- GI50 (SF-268 CNS): 11.1 µM
- TGI (SF-268 CNS): > 25 µM
- GI50 (SK-MEL-5 melanoma): 11.4 µM
- TGI (SK-MEL-5 melanoma): > 25 µM
- GI50 (T-47D breast): 10.6 µM
- TGI (T-47D breast): > 25 µM
- GI50 (U251 CNS): 12.7 µM
- TGI (U251 CNS): > 25 µM
